The values below come from paper PMC10056611, “Synthesis and Biological Evaluation of 3-Amino-4,4-Dimethyl Lithocholic Acid Derivatives as Novel, Selective, and Cellularly Active Allosteric SHP1 Activators” (Molecules, 2023).

For orientation: EC50 means the concentration at which the effect is half-maximal. A higher EC50 goes with lower potency in that assay. As a reminder, the melting point is the temperature of the solid-liquid transition.

The structures appear in SMILES notation. Several values for one entry are separate records, joined by “and”; a condition that tells them apart may be missing. Equal entries are not always repeated.

One series concerns the target SHP1 (Homo sapiens, UniProt P29350). Briefly: SHP1 enzyme assay (DiFMUP fluorogenic substrate), activation. Format: biochemical. The conditions noted are these: DiFMUP assay; mean ± SEM. The source says: The SHP1-activating effects of the synthetic compounds were examined by the 6,8-difluoro-4-methylumbelliferyl phosphate (DiFMUP) assay.
The proteins SHP1 and SHP2, containing a GST-tag, were expressed in E. coli. 6,8-Difluoro-4-methylumbelliferyl phosphate (DiFMUP) was used as the fluorogenic substrate. Fluorescence data were collected by the Envision (PerkinElmer, Waltham, MA, USA) plate reader, using excitation and emission wavelengths of 358 and 455 nm, respectively. A sigmoidal dose-response curve was fitted to the data, and the EC50 values were calculated using GraphPad Prism. In the data processing, the fitting and curves were calculated using nonlinear regression, and the fold value of the compound was calculated using the software GraphPad Prism 8. The folds were obtained according to the equation: Y = Bottom + (Top-Bottom)/(1 + 10^((LogEC50-X) × HillSlope)). The data represent mean values ± standard error of the mean (SEM) of eight-point experiments, each performed in triplicates from three independent experiments.

SHP1, sequence (P29350 whole entry): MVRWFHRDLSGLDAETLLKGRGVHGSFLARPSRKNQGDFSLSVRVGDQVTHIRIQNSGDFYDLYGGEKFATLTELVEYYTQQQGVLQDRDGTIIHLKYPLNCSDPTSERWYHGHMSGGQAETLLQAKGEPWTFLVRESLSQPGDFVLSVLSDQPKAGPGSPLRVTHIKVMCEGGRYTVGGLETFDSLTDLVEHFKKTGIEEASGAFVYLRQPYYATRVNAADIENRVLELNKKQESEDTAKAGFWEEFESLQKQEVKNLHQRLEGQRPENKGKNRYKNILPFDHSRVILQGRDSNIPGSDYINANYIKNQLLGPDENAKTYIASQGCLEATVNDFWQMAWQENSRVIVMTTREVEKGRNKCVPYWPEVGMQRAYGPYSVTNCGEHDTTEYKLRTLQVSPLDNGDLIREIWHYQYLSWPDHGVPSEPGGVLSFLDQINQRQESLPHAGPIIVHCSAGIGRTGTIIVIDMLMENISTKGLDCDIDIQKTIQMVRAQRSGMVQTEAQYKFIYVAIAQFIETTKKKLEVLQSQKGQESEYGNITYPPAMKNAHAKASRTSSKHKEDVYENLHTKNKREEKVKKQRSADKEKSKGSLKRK

Compound `CCCNC1CC[C@@]2(C)C(=CCC3C2CC[C@@]2(C)C3CC[C@@H]2[C@H](C)CCCO)C1(C)C` (stereo partly drawn) [Compound 5ae, (4R)-4-((10R,13R,17R)-4,4,10,13-tetramethyl-3-(propylamino)-tetradecahydro-1H-cyclopenta[a]phenanthren-17-yl)pentan-1-ol] came in with a melting point of 147.5 to 150.4 °C. On SHP1, this compound gave an EC50 greater than 50 µM.

Compound `CNC(=O)CC[C@@H](C)[C@H]1CCC2C3CC=C4C(C)(C)C(N)CC[C@]4(C)C3CC[C@@]21C` (stereo partly drawn) [Compound 5al] showed a melting point greater than 300 °C. In addition, on SHP1, a half-maximal effect (EC50) was put at 40.5 ± 6.58 µM and the “Maximum Activation Fold” value stood at 6.42 ± 0.28 fold.

Take `C[C@H](CCCO)[C@H]1CCC2C3=CC=C4C(C)(C)C(N)CC[C@]4(C)C3CC[C@@]21C` (stereo partly drawn) [Compound 5ak, (4R)-4-((10R,13R,17R)-3-amino-4,4,10,13-tetramethyl-2,3,4,9,10,11,12,13,14,15,16,17-dodecahydro-1H-cyclopenta[a]phenanthren-17-yl)pentan-1-ol]: the melting point lay in the range of 179.5 to 181.3 °C. Further, at SHP1, the concentration for a half-maximal effect (EC50) worked out at 20 ± 3.34 µM; the “Maximum Activation Fold” value is 7.74 fold and 7.74 ± 0.20 fold.

`C=CCC(O)(CC=C)CC[C@@H](C)[C@H]1CCC2C3CC=C4C(C)(C)C(N)CC[C@]4(C)C3CC[C@@]21C` (stereo partly drawn) [Compound 5av, (7R)-4-allyl-7-((10R,13R,17R)-3-amino-4,4,10,13-tetramethyl-tetradecahydro-1H-cyclopenta[a]phenanthren-17-yl)oct-1-en-4-ol] registered a melting point of 235.5 to 237.4 °C. For the same compound, at SHP1, the concentration for a half-maximal effect (EC50) amounted to 35.8 ± 1.92 µM and the “Maximum Activation Fold” value stood at 5.90 ± 0.42 fold.

Regarding `C[C@H](CCCO)[C@H]1CCC2C3CC=C4C(C)(C)C(N)CC[C@]4(C)C3CC[C@@]21C` (stereo partly drawn) [Compound 5aa], the melting point was in the range of 163.5 to 166.3 °C. Besides, at SHP1, the EC50 is 19.2 ± 4.59 µM and the “Maximum Activation Fold” value worked out at 6.03 ± 0.87 fold.

The compound `C[C@H](CCCO)[C@H]1CCC2C3CC=C4C(C)(C)C(NCCCO)CC[C@]4(C)C3CC[C@@]21C` (stereo partly drawn) [Compound 5ac] yielded a melting point of 183.5 to 186.8 °C. Moreover, the response at SHP1 was half-maximal at 30.7 ± 3.8 µM (EC50).

For the compound `C[C@H](CO)[C@H]1CCC2C3CC=C4C(C)(C)C(N)CC[C@]4(C)C3CC[C@@]21C` (stereo partly drawn) [Compound 5aw], the melting point was in the range of 170.6 to 173.8 °C. In addition, at SHP1, the EC50 amounted to 35.5 ± 3.15 µM.

For `CCC(O)(CC)CC[C@@H](C)[C@H]1CCC2C3CC=C4C(C)(C)C(N)CC[C@]4(C)C3CC[C@@]21C` (stereo partly drawn) [Compound 5at], the melting point was greater than 300 °C. Besides, at SHP1, a half-maximal response (EC50) required 12.9 ± 0.3 µM and the “Maximum Activation Fold” value is given as 6.50 ± 0.12 fold.

As to `C[C@H](CCCO)[C@H]1CCC2C3C(N)C=C4C(C)(C)C(N)CC[C@]4(C)C3CC[C@@]21C` (stereo partly drawn) [Compound 5aj], the melting point was in the range of 178.7 to 180.2 °C. On SHP1, the half-maximal effective concentration (EC50) is greater than 50 µM.

On to `C[C@H](CCC(C)(C)O)[C@H]1CCC2C3CC=C4C(C)(C)C(N)CC[C@]4(C)C3CC[C@@]21C` (stereo partly drawn) [Compound 5as, (5R)-5-((10R,13R,17R)-3-amino-4,4,10,13-tetramethyl-tetradecahydro-1H-cyclopenta[a]phenanthren-17-yl)-2-methylhexan-2-ol], for which the melting point fell in the range of 215.2 to 217.6 °C. Further, on SHP1, a half-maximal response (EC50) required 22 ± 3.84 µM and the “Maximum Activation Fold” value is given as 5.73 ± 0.32 fold.

The compound `CC(C)C(O)CC[C@@H](C)[C@H]1CCC2C3CC=C4C(C)(C)C(N)CC[C@]4(C)C3CC[C@@]21C` (stereo partly drawn) [Compound 5aq, (6R)-6-((10R,13R,17R)-3-amino-4,4,10,13-tetramethyl-tetradecahydro-1H-cyclopenta[a]phenanthren-17-yl)-2-methylheptan-3-ol] displayed a melting point greater than 300 °C. On SHP1, the EC50 is 22.1 ± 3.73 µM and the “Maximum Activation Fold” value came to 6.32 ± 0.34 fold.

`CC(O)CC[C@@H](C)[C@H]1CCC2C3CC=C4C(C)(C)C(N)CC[C@]4(C)C3CC[C@@]21C` (stereo partly drawn) [Compound 5an] had a melting point greater than 300 °C. In addition, on SHP1, the response was half-maximal at 17.6 ± 1.75 µM (EC50) and the “Maximum Activation Fold” value was determined as 6.33 ± 0.01 fold.

In turn, `CCCC(O)(CCC)CC[C@@H](C)[C@H]1CCC2C3CC=C4C(C)(C)C(N)CC[C@]4(C)C3CC[C@@]21C` (stereo partly drawn) [Compound 5au] displayed a melting point of 242.6 to 244.9 °C. Also, at SHP1, the EC50 turned out to be 24.4 ± 3.61 µM and the “Maximum Activation Fold” value stood at 6.42 ± 0.28 fold.

For `CCCC(O)CC[C@@H](C)[C@H]1CCC2C3CC=C4C(C)(C)C(N)CC[C@]4(C)C3CC[C@@]21C` (stereo partly drawn) [Compound 5ap], the melting point was greater than 300 °C. Also, on SHP1, the EC50 is 38.1 ± 3.76 µM and the “Maximum Activation Fold” value is listed as 6.65 ± 0.35 fold.

`C[C@H](CCCO)[C@H]1CCC2C3C(O)C=C4C(C)(C)C(N)CC[C@]4(C)C3CC[C@@]21C` (stereo partly drawn) [Compound 5ai] gave a melting point of 171.4 to 173.2 °C. Moreover, the concentration giving a half-maximal response (EC50) at SHP1 is greater than 50 µM.

With `C[C@H](CCCO)[C@H]1CCC2C3CC=C4C(C)(C)C(N5CCC5)CC[C@]4(C)C3CC[C@@]21C` (stereo partly drawn) [Compound 5af], the melting point fell in the range of 174.9 to 177.6 °C. Also, the EC50 at SHP1 is greater than 50 µM.

Regarding `C[C@H](CCCO)[C@H]1CCC2C3CC=C4C(C)(C)C(NCCCCl)CC[C@]4(C)C3CC[C@@]21C` (stereo partly drawn) [Compound 5ad], the melting point is 162.7 to 165.5 °C. The compound also displayed a 50% effective concentration (EC50) on SHP1 of 47.34 ± 0.34 µM.

`C[C@H](CCCO)[C@H]1CCC2C3C(=O)C=C4C(C)(C)C(N)CC[C@]4(C)C3CC[C@@]21C` (stereo partly drawn) [Compound 5ag, (10R,13R,17R)-3-amino-17-((R)-5-hydroxypentan-2-yl)-4,4,10,13-tetramethyl-tetradecahydro-7H-cyclopenta[a]phenanthren-7-one] came in with a melting point of 151.3 to 153.7 °C. At SHP1, the EC50 is 33.8 ± 2.93 µM and the “Maximum Activation Fold” value turned out to be 1.84 ± 0.11 fold.

Consider `C[C@H](CCCO)[C@H]1CCC2C3CC=C4C(C)(C)C(NCCO)CC[C@]4(C)C3CC[C@@]21C` (stereo partly drawn) [Compound 5ab], for which the melting point fell in the range of 184.3 to 187.5 °C. This compound also gave an EC50 at SHP1 of 39.1 ± 3.7 µM.

In turn, `C[C@H](CCCO)[C@H]1CCC2C3C(=NO)C=C4C(C)(C)C(N)CC[C@]4(C)C3CC[C@@]21C` (stereo partly drawn) [Compound 5ah, (10R,13R,17R)-3-amino-17-((R)-5-hydroxypentan-2-yl)-4,4,10,13-tetramethyl-tetradecahydro-7H-cyclopenta[a]phenanthren-7-oxime] had a melting point of 218.3 to 219.9 °C. Further, on SHP1, the half-maximal effective concentration (EC50) worked out at 34.4 ± 2.47 µM and the “Maximum Activation Fold” value came out at 2.13 ± 0.28 fold.

Regarding `CCCNCCC[C@@H](C)[C@H]1CCC2C3CC=C4C(C)(C)C(N)CC[C@]4(C)C3CC[C@@]21C` (stereo partly drawn) [Compound 5am, (10R,13R,17R)-4,4,10,13-tetramethyl-17-((R)-5-(propylamino)pentan-2-yl)-tetradecahydro-1H-cyclopenta[a]phenanthren-3-amine], the melting point was greater than 300 °C. On SHP1, this compound showed a concentration giving a half-maximal response (EC50) greater than 50 µM.

`C[C@H](CCCOc1ccc(NC(=O)Nc2ccc(Cl)c(C(F)(F)F)c2)cc1)[C@H]1CCC2C3CC=C4C(C)(C)C(N)CC[C@]4(C)C3CC[C@@]21C` (stereo partly drawn) [Compound 5ay] had a melting point of 192.3 to 194.5 °C. Also, on SHP1, the half-maximal effective concentration (EC50) came to 2.05 ± 0.14 µM and the “Maximum Activation Fold” value was determined as 5.54 ± 0.24 fold.
